One data set concerns PSMA + tumor. To be noted: 2 h p.i., clinically employed agents; ref not printed (Table S11); cited from earlier work.
Data set [1] in a line: pH-dependent speciation of ScF complexes by 1H and 45Sc NMR (HypNMR2008 fit). The format is physicochemical. The settings on record: Sc3+ complexes, determined by HypNMR2008. From the text:
To establish optimal parameters for the formation of ScF ternary complexes, we determined the pH-dependent speciation of ScF complexes with H 3 mpatcn and H 2 mpatcn-am-Bz using ^1H and ^45Sc NMR spectroscopy in accordance with previous methods established for the formation of lanthanide-fluoride complexes (Supporting Information, Section S3). […] Above pH 10, the [Sc(L)-OH] species becomes most favorable, effectively outcompeting the F^– ligand at increasing concentration. Low pH conditions led to the presence of protonated species [Sc(mpatcn)-H]^+, which competes with inner sphere fluorination. […] For both ligands, no statistically significant differences for pH dependence were observed, with the % of [ScF(L)] species remaining constant between pH 3 and 8 (Table ).

`O=C(O)CC[C@H](NC(=O)N[C@@H](CCCCNC(=O)c1ccc(F)nc1)C(=O)O)C(=O)O` [Pylarify]: the “tumor to blood ratio” value in the data set with PSMA + tumor is 1220 ± 431.

In data set [1], `CN(Cc1ccccc1)C(=O)CN1CCN(CC(=O)O)CCN(Cc2cccc(C(=O)O)n2)CC1` [mpatcn-am-Bz] registered a logßML of 23.2, a logßMLF of 27.8 and a logßMLOH of 13.7.

In data set [1], `O=C(O)CN1CCN(CC(=O)O)CCN(Cc2cccc(C(=O)O)n2)CC1` [mpatcn] displayed a logßML of 23, a logßMLF of 27.7, a logßMLH of 24.9 and a logßMLOH of 14.2.

The values are drawn from paper PMC12751015, “Evaluation of Bifunctional, PSMA-Targeted Triazamacrocycle-Picolinates Compatible with the ^18F/^44Sc/^177Lu Isotope Triad” (Journal of Medicinal Chemistry, 2025).
